Literature values in US10952984B2, “All-trans retinoic acid injectant and application” (HIGHFIELD BIOPHARMACEUTICAL CORPORATION, priority 2016, dated 2021).
≈ marks a conversion by molar mass, not a printed value.

Assays:
[1] = not given; remark: listed apart in the source

water solubility: 4.77 µg/mL (≈ 15.9 µM)
solubility of the all-trans retinoic acid in the prior art (prior art): 10 µg/mL
bioavailability ([1]; oral dosage forms, clinical studies): ≤ 30%
plasma half-life ([1]; prior art): short
Structure (SMILES): CC1=C(/C=C/C(C)=C/C=C/C(C)=C/C(=O)O)C(C)(C)CCC1 [all-trans retinoic acid]
